Laboratory results taken from patent US8829007B2 (priority 2009, dated 2014).
Like-named read-outs stand apart in the source and are kept apart here.

How the values were obtained:
[1] = system: influenza A virus (A/PR/8/34); experiment: microbe, parasite or virus in culture; format: cell-based
[2] = system: A/PR/8/34 influenza virus; experiment: microbe, parasite or virus in culture; format: cell-based
[3] = Influenza A virus, PR/8, MDCK, MDCK cells infected with A/PR/8/34, cell protection (CPE), read-out: IC50 (mean all)
[4] = Influenza A virus, PR/8, MDCK, MDCK cells infected with A/PR/8/34, bDNA viral RNA, read-out: EC50 (mean all)
[5] = Influenza A virus, PR/8, MDCK, MDCK cells infected with A/PR/8/34, survival of infected cells, class symbols, read-out: IC50 (mean all)
[6] = Influenza A virus, PR/8, MDCK, MDCK cells infected with A/PR/8/34, replication of influenza virus (viral RNA, bDNA), class symbols, read-out: EC50 (mean all)
[7] = CPE assay, A/PR/8/34 infected MDCK cells, class symbols, read-out: IC50 (mean all)
[8] = bDNA assay, A/PR/8/34 influenza virus replication in MDCK cells, class symbols, read-out: EC50 (mean all)
[9] = mean all, MDCK cells infected with A/PR/8/34, cell protection (CPE), read-out: IC50
[10] = mean all, bDNA viral RNA in MDCK cells infected with A/PR/8/34, read-out: EC50
[11] = Influenza A virus, PR/8, MDCK, mean all, A/PR/8/34 infected MDCK cells, CPE assay, read-out: IC50
[12] = Influenza A virus, PR/8, MDCK, mean all, A/PR/8/34 influenza virus in MDCK cells, bDNA assay, read-out: EC50
[13] = Influenza A virus, PR/8, MDCK, CPE assay, A/PR/8/34 infected MDCK cells, class symbols, read-out: IC50 (mean all)
[14] = Influenza A virus, PR/8, MDCK, bDNA assay, A/PR/8/34 influenza virus replication in MDCK cells, class symbols, read-out: EC50 (mean all)

## O=C(c1ccccc1C(F)(F)F)N1CCC[C@H](CNc2nc(-c3c[nH]c4ncc(Cl)cc34)ncc2F)C1 [Compound 146, (R)-(3-((2-(5-chloro-1H-pyrrolo[2,3-b]pyridin-3-yl)-5-fluoropyrimidin-4-ylamino)methyl)piperidin-1-yl)(2-(trifluoromethyl)phenyl)methanone]
[1]; [3]
  IC50: < 5 µM
[2]; [4]
  EC50: < 5 µM

## CO[C@@H]1CCC[C@H](Nc2nc(-c3c[nH]c4ncc(Cl)cc34)ncc2F)[C@H]1O [Compound 831, (1R,2S,6R)-2-(2-(5-chloro-1H-pyrrolo[2,3-b]pyridin-3-yl)-5-fluoropyrimidin-4-ylamino)-6-methoxycyclohexanol]
[1]; Influenza A virus, PR/8, MDCK, mean all, A/PR/8/34 infected MDCK cells, cell protection (CPE), read-out: IC50
  IC50: < 5 µM
[2]; Influenza A virus, PR/8, mean all, A/PR/8/34 influenza virus replication, bDNA, read-out: EC50
  EC50: < 5 µM

## O=C(Oc1ccccc1)N1CCC[C@H](CNc2nc(-c3c[nH]c4ncc(Cl)cc34)ncc2F)C1 [Compound 68, (R)-phenyl 3-((2-(5-chloro-1H-pyrrolo[2,3-b]pyridin-3-yl)-5-fluoropyrimidin-4-ylamino)methyl)piperidine-1-carboxylate]
[1]; Influenza A virus, PR/8, MDCK, read-out: IC50 (mean all)
  IC50: 5 to 20 µM
[2]; Influenza A virus, PR/8, MDCK, read-out: EC50 (mean all)
  EC50: < 5 µM

## Cn1cnc(S(=O)(=O)N2CCC[C@H](CNc3nc(-c4c[nH]c5ncc(Cl)cc45)ncc3F)C2)c1 [Compound 91, (R)-2-(5-chloro-1H-pyrrolo[2,3-b]pyridin-3-yl)-5-fluoro-N-((1-(1-methyl-1H-imidazol-4-ylsulfonyl)piperidin-3-yl)methyl)pyrimidin-4-amine]
[1]; [3]
  IC50: < 5 µM
[2]; [4]
  EC50: < 5 µM

## CC(C)OC(=O)[C@H]1CCCC[C@@H]1Nc1nc(-c2c[nH]c3ncc(Cl)cc23)ncc1F [Compound 569, (1S,2S)-isopropyl 2-(2-(5-chloro-1H-pyrrolo[2,3-b]pyridin-3-yl)-5-fluoropyrimidin-4-ylamino)cyclohexanecarboxylate]
[1]; [5]
  IC50: > 10 µM
[2]; [6]
  EC50: > 10 µM

## CC(=O)N1CCC(Nc2nc(-c3c[nH]c4ncc(Cl)cc34)ncc2F)C(C(=O)O)C1 (stereo not shown) [Compound 607]
[1]; [7]
  IC50: > 10 µM
[2]; [8]
  EC50: > 3.3 µM

## O=S(=O)(/C=C/c1ccccc1)N1CCC[C@H](CNc2nc(-c3c[nH]c4ncc(Cl)cc34)ncc2F)C1 [Compound 60, (R,E)-2-(5-chloro-1H-pyrrolo[2,3-b]pyridin-3-yl)-5-fluoro-N-((1-(styrylsulfonyl)piperidin-3-yl)methyl)pyrimidin-4-amine]
[1]; [3]
  IC50: < 5 µM
[2]; [4]
  EC50: < 5 µM

## O=C(Nc1ccsc1)N1CCC[C@@H](CNc2nc(-c3c[nH]c4ncc(Cl)cc34)ncc2F)C1 [Compound 22, (S)-3-((2-(5-chloro-1H-pyrrolo[2,3-b]pyridin-3-yl)-5-fluoropyrimidin-4-ylamino)methyl)-N-(thiophen-3-yl)piperidine-1-carboxamide]
[1]; [3]
  IC50: < 5 µM
[2]; [4]
  EC50: < 5 µM

## CC(C)COC(=O)NC1CCCC(Nc2nc(-c3c[nH]c4ncc(Cl)cc34)ncc2F)C1 (stereo not shown) [Compound 699]
[1]; [9]
  IC50: < 5 µM
[2]; [10]
  EC50: < 5 µM

## O=C(C1CCCO1)N1CCCC(Nc2nc(-c3c[nH]c4ncc(Cl)cc34)ncc2F)C1 (stereo not shown) [Compound 660]
[1]; [7]
  IC50: < 5 µM
[2]; [8]
  EC50: < 5 µM

## O=C(C1CCCCC1)N1CCC[C@H](CNc2nc(-c3c[nH]c4ncc(Cl)cc34)ncc2F)C1 [Compound 95, (R)-(3-((2-(5-chloro-1H-pyrrolo[2,3-b]pyridin-3-yl)-5-fluoropyrimidin-4-ylamino)methyl)piperidin-1-yl)(cyclohexyl)methanone]
[1]; [3]
  IC50: < 5 µM
[2]; [4]
  EC50: < 5 µM

## Fc1cnc(-c2c[nH]c3ncc(Cl)cc23)nc1NC1CCCN(CC2CCOC2)C1 (stereo not shown) [Compound 622]
[1]; [7]
  IC50: < 5 µM
[2]; [8]
  EC50: < 5 µM

## O=C1NCCC[C@@H]1Nc1nc(-c2c[nH]c3ncc(Cl)cc23)ncc1F [Compound 416]
[1]; [11]
  IC50: < 5 µM
[2]; [12]
  EC50: < 5 µM

## O=C(c1cc(F)cc2c1OCOC2)N1CCC[C@H](CNc2nc(-c3c[nH]c4ncc(Cl)cc34)ncc2F)C1 [Compound 142, (R)-(3-((2-(5-chloro-1H-pyrrolo[2,3-b]pyridin-3-yl)-5-fluoropyrimidin-4-ylamino)methyl)piperidin-1-yl)(6-fluoro-4H-benzo[d][1,3]dioxin-8-yl)methanone]
[1]; [3]
  IC50: < 5 µM
[2]; [4]
  EC50: < 5 µM

## COCCC(=O)N[C@@H]1CCC[C@H](Nc2nc(-c3c[nH]c4ncc(Cl)cc34)ncc2F)C1 [Compound 611]
[1]; [13]
  IC50: < 5 µM
[2]; [14]
  EC50: < 5 µM

## O=C(O)c1coc(N[C@@H]2CCC[C@H](Nc3nc(-c4c[nH]c5ncc(F)cc45)ncc3F)C2)n1 [Compound 1144, 2-((1R,3S)-3-(5-fluoro-2-(5-fluoro-1H-pyrrolo[2,3-b]pyridin-3-yl)pyrimidin-4-ylamino)cyclohexylamino)oxazole-4-carboxylic acid]
[1]; Influenza A virus, PR/8, MDCK, MDCK cells, A/PR/8/34, ATP readout, mean all, read-out: Cell Flu, MDCK protection, ATP (All: IC50: uM)(Mean (All))
  IC50: < 5 µM
[2]; Influenza A virus, PR/8, 30 h, HA(−) 30 hr, A/PR/8, bDNA, mean all, read-out: Cell Influenza HA(−) 30 hr A/PR/8 bDNA:bDNA EC50 uM(Mean (All))
  EC50: < 5 µM

## COc1cccc(S(=O)(=O)N2CCC[C@H](CNc3nc(-c4c[nH]c5ncc(Cl)cc45)ncc3F)C2)c1 [Compound 62, (R)-2-(5-chloro-1H-pyrrolo[2,3-b]pyridin-3-yl)-5-fluoro-N-((1-(3-methoxyphenylsulfonyl)piperidin-3-yl)methyl)pyrimidin-4-amine]
[1]; [3]
  IC50: < 5 µM
[2]; [4]
  EC50: < 5 µM

## CC1(C(=O)O)CCCCC1Nc1nc(-c2c[nH]c3ncc(F)cc23)ncc1F (stereo not shown) [Compound 678]
[1]; [9]
  IC50: < 5 µM
[2]; [10]
  EC50: < 5 µM

## CN(C)C(=O)N[C@H]1CCC[C@@H](Nc2nc(-c3c[nH]c4ncc(Cl)cc34)ncc2F)C1 (relative stereo) [Compound 456, 3-[cis-3-[[2-(5-chloro-1H-pyrrolo[2,3-b]pyridin-3-yl)-5-fluoro-pyrimidin-4-yl]amino]cyclohexyl]-1,1-dimethyl-urea]
[1]; [11]
  IC50: < 5 µM
[2]; [12]
  EC50: < 5 µM

## CC(C)(C)CC(=O)NC1CCCC(Nc2nc(-c3c[nH]c4ncc(Cl)cc34)ncc2F)C1 (stereo not shown) [Compound 728]
[1]; [9]
  IC50: < 5 µM
[2]; [10]
  EC50: < 5 µM

## CS(=O)(=O)N1CCC[C@@H](CNc2nc(-c3c[nH]c4ncc(Cl)cc34)ncc2F)C1 [Compound 36, (S)-2-(5-chloro-1H-pyrrolo[2,3-b]pyridin-3-yl)-5-fluoro-N-((1-(methylsulfonyl)-piperidin-3-yl)methyl)pyrimidin-4-amine]
[1]; [3]
  IC50: < 5 µM
[2]; [4]
  EC50: < 5 µM

## COC(=O)NC1CCCC(Nc2nc(-c3c[nH]c4ncc(Cl)cc34)ncc2F)C1 (stereo not shown) [Compound 453]
[1]; mean all, A/PR/8/34 infected MDCK cells, CPE assay, read-out: IC50
  IC50: < 5 µM
[2]; mean all, A/PR/8/34 influenza virus in MDCK cells, bDNA assay, read-out: EC50
  EC50: < 5 µM

## Fc1cnc(-c2c[nH]c3ncc(Cl)cc23)nc1NC1CCCN(Cc2cnc[nH]2)C1 (stereo not shown) [Compound 594, N-(1-((1H-imidazol-5-yl)methyl)piperidin-3-yl)-2-(5-chloro-1H-pyrrolo[2,3-b]pyridin-3-yl)-5-fluoropyrimidin-4-amine]
[1]; [5]
  IC50: < 5 µM
[2]; [6]
  EC50: < 5 µM

## O=C(Cc1ccc(F)cc1)N1CCC[C@H](CNc2nc(-c3c[nH]c4ncc(Cl)cc34)ncc2F)C1 [Compound 98, (R)-1-(3-((2-(5-chloro-1H-pyrrolo[2,3-b]pyridin-3-yl)-5-fluoropyrimidin-4-ylamino)methyl)piperidin-1-yl)-2-(4-fluorophenyl)ethanone]
[1]; [3]
  IC50: < 5 µM
[2]; [4]
  EC50: < 5 µM

## CCOC(=O)NC(=O)N1CCC[C@@H](CNc2nc(-c3c[nH]c4ncc(Cl)cc34)ncc2F)C1 [Compound 26, (S)-ethyl 3-((2-(5-chloro-1H-pyrrolo[2,3-b]pyridin-3-yl)-5-fluoropyrimidin-4-ylamino)methyl)piperidine-1-carbonylcarbamate]
[1]; [3]
  IC50: < 5 µM
[2]; [4]
  EC50: < 5 µM

## O=C(O)[C@@H]1CC[C@H](Nc2nc(-c3c[nH]c4ncc(Cl)cc34)ncc2F)C1 [Compound 566]
[1]; [5]
  IC50: < 5 µM
[2]; [6]
  EC50: < 5 µM

## O[C@H]1[C@@H](O)CCC[C@H]1Nc1nc(-c2c[nH]c3ncc(Cl)cc23)ncc1F [Compound 631]
[1]; [13]
  IC50: < 5 µM
[2]; [14]
  EC50: < 5 µM

## CC(C)(O)c1nc(-c2c[nH]c3ncc(Cl)cc23)nc(NC2CCCCC2C(=O)O)c1F (stereo not shown) [Compound 673]
[1]; [9]
  IC50: < 5 µM
[2]; [10]
  EC50: < 5 µM

## O=C(C1CCC1)N1CCOCC1CNc1nc(-c2c[nH]c3ncc(Cl)cc23)ncc1F (stereo not shown) [Compound 531, (3-((2-(5-chloro-1H-pyrrolo[2,3-b]pyridin-3-yl)-5-fluoropyrimidin-4-ylamino)methyl)morpholino)(cyclobutyl)methanone]
[1]; [5]
  IC50: 5 to 20 µM
[2]; [6]
  EC50: < 5 µM

## COCCN1CCCC(Nc2nc(-c3c[nH]c4ncc(Cl)cc34)ncc2F)C1 (stereo not shown) [Compound 595]
[1]; [13]
  IC50: < 5 µM
[2]; [14]
  EC50: < 5 µM

## NC(=O)CN1CCCC(Nc2nc(-c3c[nH]c4ncc(F)cc34)ncc2F)C1 (stereo not shown) [Compound 613]
[1]; [7]
  IC50: < 5 µM
[2]; [8]
  EC50: < 5 µM

## O=S(=O)(c1cccs1)N1CCCC(CNc2nc(-c3c[nH]c4ncc(Cl)cc34)ncc2F)C1 (stereo not shown) [Compound 89]
[1]; [3]
  IC50: < 5 µM
[2]; [4]
  EC50: < 5 µM
